{"source": "patent US11110105B2", "about": "“Compounds, composition and uses thereof for treating cancer” (INSTITUT GUSTAVE ROUSSY, priority 2017, dated 2021)", "key": {"[1]": {"system": "B16F10 mouse melanoma cell line", "experiment": "MTT assay on B16F10 cell line", "type": "cell-based", "conditions": "B16F10 WT cells, 15 μM or 35 μM", "experimental": "(§1) RNA was extracted and qRT-PCR was performed with primers amplifying the unspliced (intron) and the spliced (exon) globin-SL8-intron RNA. Data are given as mean ±SEM of the ratio of 2^−ΔΔCt intron and 2^−ΔΔCt exon of at least three independent experiments. […] Data are express as mean ±SEM of the percentage of viable cells compared to the control condition of at least three independent experiments. *P<0.05, **P<0.01, ***P<0.001 (unpaired student t test).\n(§2) MCA205 mouse sarcoma cell line is cultured at 37° C. under 5% CO2 in RPMI 1640 medium (Life Technologies) in the presence of 1% glutamine, 1% sodium pyruvate, 1% non-essential amino-acids, 1% penicillin/streptomycin and 10% FBS (Life Technologies) under standard conditions. B16F10 mouse melanoma cell line, MRC5 human fibroblast cell line and A375 human melanoma cell line are cultured at 37° C. under 5% CO2 in DMEM medium (Life Technologies) containing 1% glutamine, 1% penicillin/streptomycin and 10% FCS under standard conditions. A549 human lung carcinoma cell line is cultured at 37° C. under 5% CO2 in DMEM/F12+Glutamax I in the presence of 1% Hepes, 1% sodium pyruvate and 10% FBS under standard conditions. Stable MCA205-Globin-SL8-intron cell line are cultured under the same condition as MCA205 cell line with additional 2 mg/ml G418 (geneticin from Life Technologies) for selection. Stable B16F10-Globin-SL8-intron cell line are cultured under the same condition as B16F10 cell line with additional 2 mg/ml G418 (geneticin from Life Technologies) for selection. The SL8/Kb-specific (B3Z) T-cell reporter hybridoma are cultured at 37° C. under 5% CO2 in RPMI 1640 medium (Life Technologies) in the presence of 1% glutamine, 0.1% β-galactosidase, 1% penicillin/streptomycin and 10% FCS under standard conditions.\n(§3) MTT assay on MCA205 and B16F10 cell lines treated with 6.25 μM, 15 μM or 25 μM of isoginkgetin. Dare are given as the mean of the percentage of cell viability ±SEM from at least three independent experiments."}, "[2]": {"system": "B16F10 globin-SL8-intron (B16F10 GI) tumor", "experiment": "Tumor challenge, B16F10 globin-SL8-intron in immunocompetent C57BL/6 mice", "type": "in vivo, mouse", "conditions": "18 mg/kg intraperitoneally, days 5, 10 and 15", "experimental": "(§4) (A) Experimental settings. Growth of (B) sarcoma MCA205 or (C) melanoma B16F10 cells that both stably express the globin-SL8-intron construct or (D) MCA205 Wild Type (WT) or (E) B16F10 WT cells that were subcutaneously inoculated on the flank of immunocompetent C57BL/6 mice injected intraperitoneally with 12 mg/kg or 18 mg/kg of isoginkgetin at days 5, 10 and 15 after inoculation. Tumor size was assessed every 3 to 4 days until reaching the established ethical endpoints. Each line represents the tumor size in area (mm^2) of 6 mice in each group. Size in area (mm^2) of (F) MCA205 globin-SL8-intron, (G) B16F10 globin-SL8-intron, (H) MCA205 WT or (I) B16F10 WT tumors subcutaneously inoculated on the flank of immunodeficient Nu/Nu Nude mice injected intraperitoneally with 18 mg/kg of isoginkgetin at days 5, 10 and 15 after inoculation. Data are presented at the day before the endpoints are reached.\n(§5) Data are given as mean ±SEM. *P<0.05, **P<0.01, ***P<0.001 (unpaired student t test). […] Tumor size was assessed every 3 to 4 days until reaching the established ethical endpoints. […]\nC57B1/6J female mice are obtained from Harlan. […] Area of the tumor is recorded every 3 to 4 days until day 27. […] Results are expressed as mean ±SEM. *p<0.05, **P<0.01, ***P<0.001 (ANOVA with Tukey's multiple comparison test comparing all groups)."}, "MCA205 WT tumor": {"system": "MCA205 WT tumor", "experiment": "Tumor challenge, MCA205 WT in immunocompetent C57BL/6 mice", "type": "in vivo, mouse", "conditions": "18 mg/kg intraperitoneally, days 5, 10 and 15 (FIG. 11D)", "experimental": "as §4, §5\n(§6) The SL8 peptide has been widely shown to be highly immunogenic in vivo. […] At days 5, 10 and 15 after tumor inoculation, the mice were injected intraperitoneally with a define dose of isoginkgetin, and the tumor growth was monitored (FIG. 9A). […]"}, "B16F10 WT tumor": {"system": "B16F10 WT tumor", "experiment": "Tumor challenge, B16F10 WT in immunocompetent C57BL/6 mice", "type": "in vivo, mouse", "conditions": "18 mg/kg intraperitoneally, days 5, 10 and 15 (FIG. 11D)", "experimental": "as §4, §5, §6"}, "[3]": {"system": "splicing of the Globin-SL8-intron gene product in MCA205 cells", "experiment": "qRT-PCR of unspliced/spliced globin-SL8-intron RNA, MCA205", "type": "cell-based, mouse", "conditions": "15 μM isoginkgetin, 35 μM IP2 or 35 μM M2P2, 48 hours", "experimental": "as §1\nIn addition, it has been shown that cancer cells can acquire deficiencies in the splicing machinery that benefit their growth, for example by preventing the expression of tumor suppressor genes."}, "[4]": {"experiment": "MTT assay on A375 cell line", "type": "cell-based", "conditions": "human, A375 melanoma cells, read-out: % cell viability (±SEM)", "experimental": "(§7) MCA205 mouse sarcoma cell line is cultured at 37° C. under 5% CO2 in RPMI 1640 medium (Life Technologies) in the presence of 1% glutamine, 1% sodium pyruvate, 1% non-essential amino-acids, 1% penicillin/streptomycin and 10% FBS (Life Technologies) under standard conditions. B16F10 mouse melanoma cell line, MRC5 human fibroblast cell line and A375 human melanoma cell line are cultured at 37° C. under 5% CO2 in DMEM medium (Life Technologies) containing 1% glutamine, 1% penicillin/streptomycin and 10% FCS under standard conditions. A549 human lung carcinoma cell line is cultured at 37° C. under 5% CO2 in DMEM/F12+Glutamax I in the presence of 1% Hepes, 1% sodium pyruvate and 10% FBS under standard conditions. Stable MCA205-Globin-SL8-intron cell line are cultured under the same condition as MCA205 cell line with additional 2 mg/ml G418 (geneticin from Life Technologies) for selection. Stable B16F10-Globin-SL8-intron cell line are cultured under the same condition as B16F10 cell line with additional 2 mg/ml G418 (geneticin from Life Technologies) for selection. The SL8/Kb-specific (B3Z) T-cell reporter hybridoma are cultured at 37° C. under 5% CO2 in RPMI 1640 medium (Life Technologies) in the presence of 1% glutamine, 0.1% β-galactosidase, 1% penicillin/streptomycin and 10% FCS under standard conditions. […]"}, "[5]": {"experiment": "MTT assay on A549 cell line", "type": "cell-based", "conditions": "human, A549 lung carcinoma cells, read-out: % cell viability (±SEM)", "experimental": "as §7"}, "[6]": {"experiment": "MTT assay on B16F10 cell line", "type": "cell-based, mouse", "conditions": "mouse, B16F10 melanoma cells, MTT, read-out: % cell viability (±SEM)", "experimental": "as §1, §2, §3"}}, "note": "Entries after “also recorded” stand apart in the source; their conditions may differ.", "data": [{"smiles": "COc1ccc(-c2cc(=O)c3c(OC)cc(OP(=O)([O-])[O-])c(-c4cc(-c5cc(=O)c6c(OC)cc(OP(=O)([O-])[O-])cc6o5)ccc4OC)c3o2)cc1.[Na+].[Na+].[Na+].[Na+]", "note": "[IM2P2]", "values": [{"measurement": "toxicity (MTT, percentage of viable cells compared to control)", "setting": "[1]", "value": "no toxicity"}, {"measurement": "tumor growth", "setting": "[2]", "value": "had no effect on growth"}, {"measurement": "tumor growth", "setting": "MCA205 WT tumor", "value": "did not impact tumor growth"}, {"measurement": "tumor growth", "setting": "B16F10 WT tumor", "value": "did not impact tumor growth"}, {"measurement": "splicing of Globin-SL8-intron RNA (ratio unspliced/spliced, qRT-PCR)", "setting": "[3]", "value": "has a strong impact on splicing; also recorded: strongly inhibits the splicing"}]}, {"smiles": "COc1ccc(-c2cc(=O)c3c(O)cc(O)c(-c4cc(-c5cc(=O)c6c(O)cc(O)cc6o5)ccc4OC)c3o2)cc1", "note": "[Isoginkgetin, isoginkgetin]", "values": [{"measurement": "viability at 2.5 µM", "setting": "[4]; A375, 2.5 μM", "value": 100, "unit": "%"}, {"measurement": "viability at 6.25 µM", "setting": "[4]; A375, 6.25 μM", "value": 100, "unit": "%"}, {"measurement": "viability at 2.5 µM", "setting": "[5]; A549, 2.5 μM", "value": 100, "unit": "%"}, {"measurement": "viability at 6.25 µM", "setting": "[5]; A549, 6.25 μM", "value": 84, "unit": "%"}, {"measurement": "viability at 6.25 µM", "setting": "[6]; B16F10, 6.25 μM", "value": 86.5, "unit": "%"}, {"measurement": "viability at 15 µM", "setting": "[6]; B16F10, 15 μM", "value": 58.6, "unit": "%"}, {"measurement": "viability at 25 µM", "setting": "[6]; B16F10, 25 μM", "value": 51.2, "unit": "%"}]}]}
